Source: ChEMBL document CHEMBL1201862, “PubChem BioAssay data set” (2004)
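Each compound was tested at five concentrations against cells in 96-well plates for 48 hours. At the GI50, growth is halved.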 Calls of active or inactive are those of the source. Cut-off read from the data, not from the text of the source: active = GI50 up to about 1.1 µM and inactive = higher.

Legend:
Experiment in all cases: growth of human tumour cells (NCI), 48 h
786-0 = test system: 786-0
A498 = test system: A498
A549 = test system: A549
ACHN = test system: ACHN
CCRF-CEM = test system: CCRF-CEM
COLO 205 = test system: COLO 205
DLD-1 = test system: DLD-1
DMS-114 = test system: DMS-114
DMS-273 = test system: DMS-273
EKVX = test system: EKVX
HCC 2998 = test system: HCC 2998
HCT-116 = test system: HCT-116
HCT-15 = test system: HCT-15
HL-60 = test system: HL-60
HOP-18 = test system: HOP-18
HOP-62 = test system: HOP-62
HOP-92 = test system: HOP-92
HT-29 = test system: HT-29
IGROV-1 = test system: IGROV-1
K562 = test system: K562
KM-20L2 = test system: KM-20L2
KM12 = test system: KM12
LOX IMVI = test system: LOX IMVI
LXFL 529 = test system: LXFL 529
M14 = test system: M14
M19-MEL = test system: M19-MEL
MOLT-4 = test system: MOLT-4
Malme-3M = test system: Malme-3M
NCI-H226 = test system: NCI-H226
NCI-H23 = test system: NCI-H23
NCI-H460 = test system: NCI-H460
NCI-H522 = test system: NCI-H522
OVCAR-3 = test system: OVCAR-3
OVCAR-4 = test system: OVCAR-4
OVCAR-5 = test system: OVCAR-5
OVCAR-8 = test system: OVCAR-8
RPMI-8226 = test system: RPMI-8226
RXF 393 = test system: RXF 393
SF-268 = test system: SF-268
SF-295 = test system: SF-295
SF-539 = test system: SF-539
SK-MEL-28 = test system: SK-MEL-28
SK-MEL-2 = test system: SK-MEL-2
SK-OV-3 = test system: SK-OV-3
SN12C = test system: SN12C
SNB-19 = test system: SNB-19
SR = test system: SR
SW-620 = test system: SW-620
TK-10 = test system: TK-10
U-251 = test system: U-251
UACC-257 = test system: UACC-257
UACC-62 = test system: UACC-62
UO-31 = test system: UO-31
XF498 = test system: XF498
CAKI-1 = test system: CAKI-1
MCF7 = test system: MCF7
NCI/ADR-RES = test system: NCI/ADR-RES
SK-MEL-5 = test system: SK-MEL-5
SNB-78 = test system: SNB-78

CSC(=N)N1N=C2c3ccccc3CC[C@@H]2[C@@H]1c1ccccc1
GI50 (786-0): 12.9 µM (inactive)
GI50 (A498): 16.7 µM (inactive)
GI50 (A549): 17.6 µM (inactive)
GI50 (ACHN): 18.3 µM (inactive)
GI50 (CCRF-CEM): 19.3 µM (inactive)
GI50 (COLO 205): 13.1 µM (inactive)
GI50 (DLD-1): 12.9 µM (inactive)
GI50 (DMS-114): 13.3 µM (inactive)
GI50 (DMS-273): 15 µM (inactive)
GI50 (EKVX): 17.5 µM (inactive)
GI50 (HCC 2998): 15 µM (inactive)
GI50 (HCT-116): 4.8 µM (inactive)
GI50 (HCT-15): 15.7 µM
GI50 (HL-60): 10.6 µM (inactive)
GI50 (HOP-18): 18.5 µM (inactive)
GI50 (HOP-62): 15.7 µM (inactive)
GI50 (HOP-92): 5.16 µM (inactive)
GI50 (HT-29): 10.3 µM (inactive)
GI50 (IGROV-1): 14.5 µM (inactive)
GI50 (K562): 6.03 µM (inactive)
GI50 (KM-20L2): 12 µM (inactive)
GI50 (KM12): 14.4 µM (inactive)
GI50 (LOX IMVI): 14.5 µM (inactive)
GI50 (LXFL 529): 11.5 µM (inactive)
GI50 (M14): 13.2 µM (inactive)
GI50 (M19-MEL): 15.9 µM (inactive)
GI50 (MOLT-4): 9.71 µM (inactive)
GI50 (Malme-3M): 12.8 µM (inactive)
GI50 (NCI-H226): 9.73 µM (inactive)
GI50 (NCI-H23): 15.2 µM (inactive)
GI50 (NCI-H460): 13.2 µM (inactive)
GI50 (NCI-H522): 14.2 µM (inactive)
GI50 (OVCAR-3): 15.8 µM (inactive)
GI50 (OVCAR-4): 14.8 µM (inactive)
GI50 (OVCAR-5): 17.7 µM (inactive)
GI50 (OVCAR-8): 15 µM (inactive)
GI50 (RPMI-8226): 12.1 µM (inactive)
GI50 (RXF 393): 13.9 µM (inactive)
GI50 (SF-268): 22 µM (inactive)
GI50 (SF-295): 14.4 µM (inactive)
GI50 (SF-539): 13.9 µM (inactive)
GI50 (SK-MEL-28): 15.6 µM (inactive)
GI50 (SK-MEL-2): 14.6 µM (inactive)
GI50 (SK-OV-3): 18.1 µM (inactive)
GI50 (SN12C): 16.4 µM (inactive)
GI50 (SNB-19): 16.4 µM (inactive)
GI50 (SR): 10.4 µM (inactive)
GI50 (SW-620): 15.5 µM (inactive)
GI50 (TK-10): 17 µM (inactive)
GI50 (U-251): 17.1 µM (inactive)
GI50 (UACC-257): 18.5 µM (inactive)
GI50 (UACC-62): 17 µM (inactive)
GI50 (UO-31): 9.64 µM (inactive)
GI50 (XF498): 16.7 µM (inactive)

COCCOCOc1ccc(OCc2ccccc2)cc1
GI50 (A498): > 58.5 µM (inactive)
GI50 (A549): > 100 µM (inactive)
GI50 (CAKI-1): 2.25 µM (inactive)
GI50 (CCRF-CEM): 36.6 µM (inactive)
GI50 (COLO 205): > 100 µM (inactive)
GI50 (DLD-1): > 100 µM (inactive)
GI50 (DMS-114): 40.9 µM (inactive)
GI50 (DMS-273): > 94.6 µM (inactive)
GI50 (EKVX): > 55.7 µM (inactive)
GI50 (HCC 2998): > 82.6 µM (inactive)
GI50 (HCT-116): > 100 µM (inactive)
GI50 (HCT-15): > 100 µM
GI50 (HL-60): 22.5 µM (inactive)
GI50 (HOP-18): > 100 µM (inactive)
GI50 (HOP-62): > 100 µM (inactive)
GI50 (HOP-92): > 100 µM (inactive)
GI50 (HT-29): > 100 µM (inactive)
GI50 (IGROV-1): > 100 µM (inactive)
GI50 (K562): 64.9 µM (inactive)
GI50 (KM-20L2): > 100 µM (inactive)
GI50 (KM12): > 100 µM (inactive)
GI50 (LOX IMVI): > 100 µM (inactive)
GI50 (M19-MEL): > 63.4 µM (inactive)
GI50 (MCF7): > 35.9 µM (inactive)
GI50 (MOLT-4): 34 µM (inactive)
GI50 (Malme-3M): > 100 µM (inactive)
GI50 (NCI-H226): > 100 µM (inactive)
GI50 (NCI-H23): > 71 µM (inactive)
GI50 (NCI-H460): > 100 µM (inactive)
GI50 (NCI/ADR-RES): > 82.8 µM (inactive)
GI50 (OVCAR-3): > 100 µM (inactive)
GI50 (OVCAR-4): 35.7 µM (inactive)
GI50 (OVCAR-5): > 100 µM (inactive)
GI50 (OVCAR-8): > 100 µM (inactive)
GI50 (RPMI-8226): > 49.5 µM (inactive)
GI50 (RXF 393): > 100 µM (inactive)
GI50 (SF-268): > 100 µM (inactive)
GI50 (SF-295): > 100 µM (inactive)
GI50 (SF-539): > 100 µM (inactive)
GI50 (SK-MEL-28): > 100 µM (inactive)
GI50 (SK-MEL-2): > 82.6 µM (inactive)
GI50 (SK-MEL-5): 35 µM (inactive)
GI50 (SK-OV-3): > 100 µM (inactive)
GI50 (SN12C): > 100 µM (inactive)
GI50 (SNB-19): > 100 µM (inactive)
GI50 (SNB-78): > 100 µM (inactive)
GI50 (SW-620): > 100 µM (inactive)
GI50 (U-251): > 85.9 µM (inactive)
GI50 (UACC-257): > 69.7 µM (inactive)
GI50 (UACC-62): > 100 µM (inactive)
GI50 (UO-31): > 100 µM (inactive)
GI50 (XF498): > 100 µM (inactive)
